Measurements: the CheMixHub viscosity set
Where “and” joins values, the source holds several entries; their conditions need not be identical. Equal values may be shown once.

How the values were obtained:
[1] = xn = mol fraction of the nth substance listed

CCCCC(=O)[O-].CC[NH+](CC)CCO
101 kPa
Details	viscosity [mPa·s]
293.15 K	62.45
298.15 K	47.75
303.15 K	37.12
308.15 K	29.31
313.15 K	23.48
318.15 K	19.07
323.15 K	15.68

ClC=C(Cl)Cl
Details	viscosity
293.15 K, 101 kPa	0.568 mPa·s
293.15 K, 101.33 kPa	0.572 mPa·s
298 K, 101 kPa	0.69 mPa·s
298.15 K, 101 kPa	0.531 mPa·s
298.15 K, 101.33 kPa	0.529 mPa·s and 0.618 mPa·s
303 K, 101 kPa	0.66 mPa·s
303.15 K, 101 kPa	0.52 mPa·s and 0.523 mPa·s
303.15 K, 101.3 kPa	0.509 mPa·s and 0.515 mPa·s
303.15 K, 101.32 kPa	0.523 mPa·s
303.15 K, 101.33 kPa	0.523 mPa·s and 0.515 mPa·s and 0.532 mPa·s
308 K, 101 kPa	0.63 mPa·s
308.15 K, 101 kPa	0.489 mPa·s
308.15 K, 101.33 kPa	0.588 mPa·s
313 K, 101 kPa	0.6 mPa·s
313.15 K, 101 kPa	0.482 mPa·s and 0.531 mPa·s
313.15 K, 101.33 kPa	0.486 mPa·s and 0.473 mPa·s
318.15 K, 101 kPa	0.45 mPa·s
318.15 K, 101.33 kPa	0.557 mPa·s
323.15 K, 101 kPa	0.445 mPa·s and 0.472 mPa·s

CC(O)CO (centres undefined)
viscosity
Details	293.15 K	298.15 K	303.15 K	308.15 K	313 K	313.15 K	318.15 K	323.15 K
100 kPa	54.6 mPa·s and 58.75 mPa·s and 59.2 mPa·s	–	33.06 mPa·s	25.31 mPa·s and 24.9 mPa·s	–	19.65 mPa·s and 19.3 mPa·s	–	12.53 mPa·s and 12.54 mPa·s and 12.51 mPa·s
101 kPa	–	–	34.28 mPa·s and 33.1 mPa·s	–	20.2 mPa·s	20.43 mPa·s and 19.65 mPa·s and 21.46 mPa·s	–	12.2 mPa·s
101.3 kPa	57.2 mPa·s	43.5 mPa·s and 43.6 mPa·s	32.73 mPa·s	25.1 mPa·s and 24.8 mPa·s	–	19.47 mPa·s and 19.47 mPa·s	15.36 mPa·s and 15.2 mPa·s and 15.36 mPa·s	12.34 mPa·s

CCC[N+]1(C)CCCC1.N#C[N-]C#N
Details	viscosity [mPa·s]
313.15 K, 101 kPa	18.6

O=C1CCCC1
viscosity
Details	298.15 K	303.15 K	308.15 K	313.15 K	318.15 K
100 kPa	–	0.985 mPa·s	0.931 mPa·s	0.863 mPa·s	0.811 mPa·s
101 kPa	1.084 mPa·s and 1.125 mPa·s	–	0.923 mPa·s and 0.931 mPa·s and 0.928 mPa·s	0.861 mPa·s and 0.861 mPa·s and 0.863 mPa·s	0.811 mPa·s
101.3 kPa	1.074 mPa·s	–	–	–	–
101.33 kPa	–	0.992 mPa·s	–	–	–

CC(CCO)CC(C)(C)C (centres undefined)
101.33 kPa
Details	viscosity [mPa·s]
298.15 K	10.97
303.15 K	10.44
308.15 K	9.608

CC(=O)[O-].C[NH+]1CCCC1
Details	viscosity [mPa·s]
298.15 K, 100 kPa	3.78

Cc1ccccn1
viscosity
Details	293.15 K	298.15 K	298.18 K	303.15 K	303.21 K	308.23 K	313.15 K	313.29 K	318.33 K	323.15 K
101 kPa	0.808 mPa·s	0.792 mPa·s	0.751 mPa·s	–	0.704 mPa·s	0.663 mPa·s	0.628 mPa·s	0.623 mPa·s	0.588 mPa·s	–
101.3 kPa	–	–	–	0.7406 mPa·s	–	–	0.6537 mPa·s and 0.6534 mPa·s	–	–	0.5843 mPa·s

O=C[O-].OCC[NH2+]CCO
100 kPa
Details	viscosity [mPa·s]
293.15 K	470.9
303.15 K	242
313.15 K	135
323.15 K	82.25

C1COCCN1
101 kPa
Details	viscosity
293.15 K	2.12 mPa·s and 2.282 mPa·s
303.15 K	1.74 mPa·s
313.15 K	1.45 mPa·s
323.15 K	1.21 mPa·s

CC(C)Br
101 kPa
Details	viscosity [mPa·s]
298.15 K	0.4981
303.15 K	0.4835
308.15 K	0.4708
313.15 K	0.4389
318.15 K	0.4194

ClC=C(Cl)Cl + CC(C)O
viscosity [mPa·s], [1]
Details	293.15 K	303.15 K	313.15 K
101.3 kPa, x1 = 0.1036	–	1.363	–
101.3 kPa, x1 = 0.2204	–	1.053	–
101.3 kPa, x1 = 0.3432	–	0.849	–
101.3 kPa, x1 = 0.4172	–	0.765	–
101.3 kPa, x1 = 0.5133	–	0.686	–
101.3 kPa, x1 = 0.6024	–	0.641	–
101.3 kPa, x1 = 0.7196	–	0.603	–
101.3 kPa, x1 = 0.8017	–	0.583	–
101.3 kPa, x1 = 0.9028	–	0.556	–
101.33 kPa, x2 = 0.15	0.7418	0.6628	0.5527
101.33 kPa, x2 = 0.3	0.9127	0.7947	0.6334
101.33 kPa, x2 = 0.45	1.083	0.9265	0.7141
101.33 kPa, x2 = 0.6	1.257	1.058	0.7948
101.33 kPa, x2 = 0.75	1.428	1.19	0.8775
101.33 kPa, x2 = 0.9	1.596	1.322	0.9562

ClC=C(Cl)Cl + CCOCCO
viscosity [mPa·s], [1], 101.33 kPa
Details	x1 = 0.1191	x1 = 0.2226	x1 = 0.3214	x1 = 0.4322	x1 = 0.5234	x1 = 0.6128	x1 = 0.7066	x1 = 0.8105	x1 = 0.9057
303.15 K	1.453	1.286	1.134	0.976	0.865	0.769	0.687	0.614	0.557
313.15 K	1.166	1.052	0.946	0.829	0.747	0.676	0.612	0.555	0.511

NC1CCCCC1
101 kPa
Details	viscosity
298.15 K	1.753 mPa·s (2×) and 1.773 mPa·s and 1.753 mPa·s
303.15 K	1.656 mPa·s and 1.648 mPa·s
308.15 K	1.325 mPa·s and 1.325 mPa·s
